The test system of this assay is Swiss mice CD1. Briefly: forced swim test, Alverine and imipramine administered intraperitoneally to mice (Example 3, first test). The class given is in vivo. More on the design: key to Dunnett test vs control group: * indicates a significant difference for p < 0.05 (Dunnett test); ns indicates an insignificant result. The note with it: for immobility time, individual animals / immobility time, Mean: 30 minutes prior to the test; for immobility time, Mean: n = 10. As to the method:
These are Swiss mice CD1 (CD-1® (ICR) IGS (Charles River France) weighing between 25 and 35 g. […] They are placed 15 to 20 per cage, over an acclimatising period of at least 5 days prior to the tests. They are identified by marking on the fur. […] The mice were divided into two test comprising six groups of 10 mice each. For the first test: The first group is the control group: it is treated only by excipient. The second group is treated with imipramine at a dose of 3 mg/kg The third group is treated with Alverine at a dose of 3 mg/kg The fourth group is treated with Alverine at a dose of 3 mg/kg and imipramine at a dose of 3 mg/kg The fifth group is treated with imipramine at a dose of 10 mg/kg […] The doses are expressed in terms of free active substances. The test substances are prepared extemporaneously in a saline solution. The treatments are co-administered 30 minutes prior to the test in a coded and random order intraperitoneally with a volume of 10 ml/kg (5 ml/kg for each administration). Thirty minutes following administration the six groups of mice are subjected to the forced swim test, in a vertical Plexiglas cylinder (height 24 cm, diameter 9 cm) containing water (height 6 cm, temperature 18-22° C.). The total duration of immobility is measured over the last four minutes of the test, six minutes in total. A mouse is deemed immobile when it ceases struggling and floats in the water without movements superfluous to those allowing it to keep its head above water. A drop in immobility time is the reflection of an antidepressant effect. The forced swim test is a pre-clinical behavioural model, which has good predictive validity and is widely employed for determining the efficacy of antidepressant medications (Borsini and Meli, 1988). The results are expressed in total duration of immobility in seconds and as a percentage of variation of the total duration of immobility calculated from the average value of the control group. The statistical significance between two treated groups is determined by using a Student test (P<0.05) The data are analysed using <<SigmaStat>> software.

[1] abbreviates: Alverine 3 mg/kg intraperitoneally.
Where [2] appears, read: Alverine 10 mg/kg intraperitoneally.

Where “and” joins values, the source holds several entries; their conditions need not be identical. Equal values may be shown once. Where a name gives a salt, the structure may show the parent alone.

For the compound `CCN(CCCc1ccccc1)CCCc1ccccc1` [Alverine citrate, N-ethyl-3,3′-diphenyldipropylamine], under setting [1], the “% of variation of immobility time vs control group” value is −30%; the “Dunnett test vs control group” value was “ns”; the “immobility time, individual animals” value was 108 s and 134 s and 113 s and 65 s and 85 s and 73 s and 79 s and 125 s and 95 s and 140 s; the “immobility time, Mean” value was determined as 101.7 s. Further, under setting [2], the “% of variation of immobility time vs control group” value is recorded as −70%; the “Dunnett test vs control group” value is “* (* indicates a significant difference for p < 0.05 (Dunnett test))”; the “immobility time, individual animals” value was 28 s and 10 s and 1 s and 74 s and 22 s and 70 s and 69 s and 67 s and 42 s and 57 s; the “immobility time, Mean” value amounted to 44.0 s. Besides, the “decrease in the duration of immobilisation as compared to the control group (in words)” value (tested alone at 3 mg/kg intraperitoneally) is “statistically insignificant decrease”.

The record behind these values is patent US20050065218A1, “Utilization of alverine, alone or in combination with tricyclic antidepressant or a specific serotonin reuptake inhibitor for the treatment of depression” (priority 2003, published 2005).
